# Results as given in patent US10112937B2, “P2X7 modulators and methods of use” (Janssen Pharmaceutica NV, priority 2013, dated 2018).
# Molecular target: human P2X7 (Homo sapiens (Human), UniProt Q99572)
# Test: P2X7 antagonism in human PBMCs (IL-1β release after LPS + Bz-ATP, ELISA)
# Assay type: cell-based
# Details: test compound 10 μM
# human P2X7, sequence (Q99572 whole entry): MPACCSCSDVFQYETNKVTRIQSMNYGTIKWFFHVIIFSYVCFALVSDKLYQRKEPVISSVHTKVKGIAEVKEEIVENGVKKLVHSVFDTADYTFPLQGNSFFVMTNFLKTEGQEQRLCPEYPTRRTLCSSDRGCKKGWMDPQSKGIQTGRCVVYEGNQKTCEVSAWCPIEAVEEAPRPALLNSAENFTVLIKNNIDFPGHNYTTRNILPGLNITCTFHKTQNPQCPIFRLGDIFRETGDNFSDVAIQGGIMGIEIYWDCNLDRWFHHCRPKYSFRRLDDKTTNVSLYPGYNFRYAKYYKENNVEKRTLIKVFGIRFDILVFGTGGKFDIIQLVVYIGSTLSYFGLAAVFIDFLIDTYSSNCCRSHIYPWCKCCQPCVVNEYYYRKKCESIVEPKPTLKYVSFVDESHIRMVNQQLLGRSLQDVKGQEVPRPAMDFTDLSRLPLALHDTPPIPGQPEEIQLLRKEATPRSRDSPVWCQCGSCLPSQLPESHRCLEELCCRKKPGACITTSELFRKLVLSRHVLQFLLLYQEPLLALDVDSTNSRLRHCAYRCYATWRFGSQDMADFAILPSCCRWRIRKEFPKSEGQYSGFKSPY
PBMC 10 μM (% control) (human PBMCs),SMILES,PBMC 10 μM (% control) (LPS 30 ng/ml + 0.5 mM Bz-ATP)
0.9,"CCc1cccnc1-n1nnc2c1CCN(C(=O)c1cccc(C(F)(F)F)c1Cl)C2C (stereo not drawn) [Example 254, (2-Chloro-3-(trifluoromethyl)phenyl)(1-(3-ethylpyridin-2-yl)-4-methyl-6,7-dihydro-1H-[1,2,3]triazolo[4,5-c]pyridin-5(4H)-yl)methanone]",–
7.1,"O=C(c1ccc(Cl)cc1Cl)N1CCc2c(nnn2-c2ncccn2)C1 [Example 257, (2,4-dichlorophenyl)(1-(pyrimidin-2-yl)-6,7-dihydro-1H-[1,2,3]triazolo[4,5-c]pyridin-5(4H)-yl)methanone]",–
−3.2,"CCOc1cccnc1-n1nnc2c1CCN(C(=O)c1cccc(C(F)(F)F)c1Cl)C2C (stereo not drawn) [Example 258, (2-Chloro-3-(trifluoromethyl)phenyl)(1-(3-ethoxypyridin-2-yl)-4-methyl-6,7-dihydro-1H-[1,2,3]triazolo[4,5-c]pyridin-5(4H)-yl)methanone]",–
−3.5,"Cc1cccnc1-n1nnc2c1CCN(C(=O)c1cccc(C(F)(F)F)c1Cl)C2C (stereo not drawn) [Example 259, (2-Chloro-3-(trifluoromethyl)phenyl)(4-methyl-1-(3-methylpyridin-2-yl)-6,7-dihydro-1H-[1,2,3]triazolo[4,5-c]pyridin-5(4H)-yl)methanone]",–
1.4,"COc1cccnc1-n1nnc2c1CCN(C(=O)c1cccc(C(F)(F)F)c1Cl)C2C (stereo not drawn) [Example 260, (2-Chloro-3-(trifluoromethyl)phenyl)(1-(3-methoxypyridin-2-yl)-4-methyl-6,7-dihydro-1H-[1,2,3]triazolo[4,5-c]pyridin-5(4H)-yl)methanone]",–
5.8,"CC1Cc2c(-c3ccnn3C)nn(C)c2CN1C(=O)c1cccc(C(F)(F)F)c1Cl (stereo not drawn) [Example 266, (2-chloro-3-(trifluoromethyl)phenyl)(1,5-dimethyl-3-(1-methyl-1H-pyrazol-5-yl)-4,5-dihydro-1H-pyrazolo[3,4-c]pyridin-6(7H)-yl)methanone]",–
−7.6,"O=C(c1ccc(Cl)cc1F)N1CCc2c(nnn2-c2cnccn2)C1 [Example 272, (4-chloro-2-fluorophenyl)(1-(pyrazin-2-yl)-6,7-dihydro-1H-[1,2,3]triazolo[4,5-c]pyridin-5(4H)-yl)methanone]",–
−2.1,"CC1c2nnn(-c3cnccn3)c2CCN1C(=O)c1cccc(C(F)(F)F)c1F (stereo not drawn) [Example 273, (2-fluoro-3-(trifluoromethyl)phenyl)(4-methyl-1-(pyrazin-2-yl)-6,7-dihydro-1H-[1,2,3]triazolo[4,5-c]pyridin-5(4H)-yl)methanone]",–
−4.8,"CC1c2nnn(-c3cnccn3)c2CCN1C(=O)c1ccc(Cl)cc1F (stereo not drawn) [Example 274, (4-chloro-2-fluorophenyl)(4-methyl-1-(pyrazin-2-yl)-6,7-dihydro-1H-[1,2,3]triazolo[4,5-c]pyridin-5(4H)-yl)methanone]",–
−8.3,"CC1c2nnn(-c3ncccn3)c2CCN1C(=O)c1ccc(Cl)cc1F (stereo not drawn) [Example 275, (4-chloro-2-fluorophenyl)(4-methyl-1-(pyrimidin-2-yl)-6,7-dihydro-1H-[1,2,3]triazolo[4,5-c]pyridin-5(4H)-yl)methanone]",–
−0.9,"Cc1c(C(=O)N2CCc3c(nnn3-c3cnccn3)C2)cccc1C(F)(F)F [Example 276, (2-methyl-3-(trifluoromethyl)phenyl)(1-(pyrazin-2-yl)-6,7-dihydro-1H-[1,2,3]triazolo[4,5-c]pyridin-5(4H)-yl)methanone]",–
−5.5,"Cc1c(C(=O)N2CCc3c(nnn3-c3ncccn3)C2C)cccc1C(F)(F)F (stereo not drawn) [Example 282, (4-methyl-1-(pyrimidin-2-yl)-6,7-dihydro-1H-[1,2,3]triazolo[4,5-c]pyridin-5(4H)-yl)(2-methyl-3-(trifluoromethyl)phenyl)methanone]",–
−6.3,"CC1c2nnn(-c3ncccn3)c2CCN1C(=O)c1ccc(Cl)cc1Cl (stereo not drawn) [Example 283, (2,4-dichlorophenyl)(4-methyl-1-(pyrimidin-2-yl)-6,7-dihydro-1H-[1,2,3]triazolo[4,5-c]pyridin-5(4H)-yl)methanone]",–
−2.6,"C[C@H]1Cc2c(nnn2-c2ccc(F)cc2)[C@H](C)N1C(=O)c1cccc(C(F)(F)F)c1Cl [Example 285, (2-chloro-3-(trifluoromethyl)phenyl)((4S,6S)-1-(4-fluorophenyl)-4,6-dimethyl-6,7-dihydro-1H-[1,2,3]triazolo[4,5-c]pyridin-5(4H)-yl)methanone]",–
5.8,"C[C@@H]1Cc2c(nnn2-c2ccc(F)cc2)[C@H](C)N1C(=O)c1cccc(C(F)(F)F)c1Cl [Example 286, (2-chloro-3-(trifluoromethyl)phenyl)((4S,6R)-1-(4-fluorophenyl)-4,6-dimethyl-6,7-dihydro-1H-[1,2,3]triazolo[4,5-c]pyridin-5(4H)-yl)methanone]",–
4.4,"C[C@H]1Cc2c(nnn2-c2ccccc2)CN1C(=O)c1cccc(C(F)(F)F)c1Cl [Example 288, (S)-(2-chloro-3-(trifluoromethyl)phenyl)(6-methyl-1-phenyl-6,7-dihydro-1H-[1,2,3]triazolo[4,5-c]pyridin-5(4H)-yl)methanone]",–
3.6,"C[C@@H]1Cc2c(nnn2-c2ccn[nH]2)[C@@H](C)N1C(=O)c1cccc(C(F)(F)F)c1Cl [Example 296, (2-chloro-3-(trifluoromethyl)phenyl)((4R,6R)-4,6-dimethyl-1-(1H-pyrazol-5-yl)-6,7-dihydro-1H-[1,2,3]triazolo[4,5-c]pyridin-5(4H)-yl)methanone]",–
2.6,"C[C@@H]1Cc2c(nnn2-c2ccn[nH]2)[C@H](C)N1C(=O)c1cccc(C(F)(F)F)c1Cl [Example 297, (2-chloro-3-(trifluoromethyl)phenyl)((4S,6R)-4,6-dimethyl-1-(1H-pyrazol-5-yl)-6,7-dihydro-1H-[1,2,3]triazolo[4,5-c]pyridin-5(4H)-yl)methanone]",–
1.5,"Cc1ccnc(-n2nnc3c2CCN(C(=O)c2cccc(C(F)(F)F)c2Cl)C3C)c1 (stereo not drawn) [Example 299, (2-chloro-3-(trifluoromethyl)phenyl)(4-methyl-1-(4-methylpyridin-2-yl)-6,7-dihydro-1H-[1,2,3]triazolo[4,5-c]pyridin-5(4H)-yl)methanone]",–
−1.8,"Cc1cc(C)nc(-n2nnc3c2CCN(C(=O)c2cccc(C(F)(F)F)c2Cl)C3C)c1 (stereo not drawn) [Example 300, (2-chloro-3-(trifluoromethyl)phenyl)(1-(4,6-dimethylpyridin-2-yl)-4-methyl-6,7-dihydro-1H-[1,2,3]triazolo[4,5-c]pyridin-5(4H)-yl)methanone]",–
−2.2,"Cc1ccc(-n2nnc3c2CCN(C(=O)c2cccc(C(F)(F)F)c2Cl)C3C)nc1 (stereo not drawn) [Example 301, (2-chloro-3-(trifluoromethyl)phenyl)(4-methyl-1-(5-methylpyridin-2-yl)-6,7-dihydro-1H-[1,2,3]triazolo[4,5-c]pyridin-5(4H)-yl)methanone]",–
−2.8,"Cc1cccc(-n2nnc3c2CCN(C(=O)c2cccc(C(F)(F)F)c2Cl)C3C)n1 (stereo not drawn) [Example 302, (2-chloro-3-(trifluoromethyl)phenyl)(4-methyl-1-(6-methylpyridin-2-yl)-6,7-dihydro-1H-[1,2,3]triazolo[4,5-c]pyridin-5(4H)-yl)methanone]",–
3.2,"C[C@H]1Cc2c(nnn2-c2ncc(F)cn2)CN1C(=O)c1cccc(C(F)(F)F)c1 [Example 304, (S)-(1-(5-fluoropyrimidin-2-yl)-6-methyl-6,7-dihydro-1H-[1,2,3]triazolo[4,5-c]pyridin-5(4H)-yl)(3-(trifluoromethyl)phenyl)methanone]",–
2.2,"C[C@H]1Cc2c(nnn2-c2ncc(F)cn2)CN1C(=O)c1cc(F)cc(C(F)(F)F)c1 [Example 307, (S)-(3-fluoro-5-(trifluoromethyl)phenyl)(1-(5-fluoropyrimidin-2-yl)-6-methyl-6,7-dihydro-1H-[1,2,3]triazolo[4,5-c]pyridin-5(4H)-yl)methanone]",–
1.4,"C[C@@H]1Cc2c(nnn2-c2ccn[nH]2)[C@H](C)N1C(=O)c1cccc(C(F)(F)F)c1Cl [Example 309, (2-chloro-3-(trifluoromethyl)phenyl)((4S,6R)-4,6-dimethyl-1-(1H-pyrazol-5-yl)-6,7-dihydro-1H-[1,2,3]triazolo[4,5-c]pyridin-5(4H)-yl)methanone]",–
8.8,"O=C(c1cccc(C(F)(F)F)c1Cl)N1CCc2c(ncn2-c2ccc(F)cn2)C1 [Example 315, (2-chloro-3-(trifluoromethyl)phenyl)(1-(5-fluoropyridin-2-yl)-6,7-dihydro-1H-imidazo[4,5-c]pyridin-5(4H)-yl)methanone]",–
−6.8,"C[C@H]1Cc2c(nnn2-c2ccn[nH]2)[C@H](C)N1C(=O)c1cccc(C(F)(F)F)c1Cl [Example 319, (2-chloro-3-(trifluoromethyl)phenyl)((4S,6S)-4,6-dimethyl-1-(1H-pyrazol-5-yl)-6,7-dihydro-1H-[1,2,3]triazolo[4,5-c]pyridin-5(4H)-yl)methanone]",–

SMILES,PBMC 10 μM (% control) (human PBMCs),PBMC 10 μM (% control) (LPS 30 ng/ml + 0.5 mM Bz-ATP)
"C[C@@H]1c2nnn(-c3ccc(F)cc3)c2C[C@H](C)N1C(=O)c1cccc(C(F)(F)F)c1Cl [Example 287, (2-chloro-3-(trifluoromethyl)phenyl)((4R,6S)-1-(4-fluorophenyl)-4,6-dimethyl-6,7-dihydro-1H-[1,2,3]triazolo[4,5-c]pyridin-5(4H)-yl)methanone]",−4.1,−4.1
"CC1c2nn(COCC[Si](C)(C)C)c(-c3ncc(F)cn3)c2CCN1C(=O)c1cccc(C(F)(F)F)c1Cl (stereo not drawn) [Example 303, (2-chloro-3-(trifluoromethyl)phenyl)(3-(5-fluoropyrimidin-2-yl)-7-methyl-2-((2-(trimethylsilyl)ethoxy)methyl)-4,5-dihydro-2H-pyrazolo[3,4-c]pyridin-6(7H)-yl)methanone]",−1.6,–
